Legend:
[1] = test system: Aβ secretion in K269sw cells transfected with human pHaMDR1 construct; experiment: Aβ secretion from K269sw cells transiently transfected with pHaMDR1 (W0-2 western blot); type: cell-based; settings: RU49953 0.01-1.0 μM, fifteen minutes; FIG. 12
Description: K269sw cells were cultured in 20 mm Falcon dishes in DMEM containing 10% FBS, and […] geneticin (GIBCO) to about 50% confluence and transiently transfected with the human pHaMDR1 construct using the calcium-phosphate precipitation technique as described above. Cells were replated at a density of 2.0×10^6 cells/dish 8 hours post-transfection on 10 cm petri dishes as described above. To assay for transfection efficiency, the β-gal gene was also co-transfected into the cells. β-gal staining was performed to determine the percentage of cells within each dish which were successfully transfected with the cDNA.
Exposures were performed without resuspending the cells. 10 mL of DMEM containing either control (DMSO), PMA (0.1 μM), or RU486 (0.001 μM, 0.01 μM, 0.1 μM, 1.0 μM), were prepared. DMSO concentrations in the medium were normalized to 0.01% (v/v). The supplemented medium was aspirated and 1 mL of the appropriate medium was added to the cells. […] 5 μL from each sample was collected for protein quantification. […]
SDS-PAGE was used to resolve secreted protein on a 16.5% tris-tricine polyacrylamide gel. […] Aβ was visualized using ECL and quantitation was performed as previously described. […]
Exposures were performed without resuspending the cells. […] 5 μL from each sample was collected for protein quantification. […]

MDR1 = settings: cited from earlier work

What does the source list for `CC#C[C@]1(O)CC[C@H]2[C@@H]3CCC4=CC(=O)CCC4=C3[C@@H](c3ccc(N(C)C)cc3)C[C@@]21C` [RU49953, 17β-hydroxy-11β, 17α-[4-dimethylaminophenyl]-17α prop-1-ynyl estra-4, 9 dien-3 one]?
effect on Aβ secretion [1]: reduces Aβ secretion in fifteen minutes in a dose-dependent manner; binding to and block of MDR1 mediated efflux (MDR1): bind to and block
